From US9439839B2, “Cosmetic solution, method for producing cosmetic solution, and cosmetic method” (priority 2011, dated 2016) come the findings set out here.

The test can be described thus: evaluation of moisturizing power with oil water content measuring apparatus. Type of test: in vivo. Particulars: cosmetic solution diluted twice by water, applied to forearm flexor side; compared with propylene glycol and 1,3-butylene glycol. The text has this: For the evaluation of moisturizing power, an oil water content measuring apparatus (WSK-P500U manufactured by Wave Cyber) was used. This measuring apparatus indicates the water content of the part of the skin to be measured by a relative value of 0 to 99. The part to be measured was the forearm flexor side.

Regarding `OCC(O)CO` [glycerin], the moisturizing power result is recorded as “highest moisturizing power”.
